Experimental data from PubChem BioAssay (NCI).
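Test compounds were applied to cells in 96-well plates for 48 hours at 5 doses. GI50: concentration for 50% inhibition of growth. TGI denotes the concentration required for complete inhibition of growth.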

Tests used:
Test in all cases: DTP human tumour cell line panel, 48 h
[1] = system: HCT-15 colon
[2] = system: MOLT-4 leukemia
[3] = system: SK-MEL-5 melanoma
[4] = system: SNB-19 CNS
[5] = system: KM12 colon
[6] = system: SF-268 CNS
[7] = system: CAKI-1 renal
[8] = system: U251 CNS
[9] = system: MCF7 breast
[10] = system: HL-60(TB) leukemia
[11] = system: SN12C renal
[12] = system: SK-MEL-28 melanoma
[13] = system: UO-31 renal
[14] = system: MALME-3M melanoma
[15] = system: BT-549 breast
[16] = system: HCC-2998 colon
[17] = system: A498 renal
[18] = system: RXF 393 renal
[19] = system: K-562 leukemia
[20] = system: SK-MEL-2 melanoma
[21] = system: MDA-MB-435
[22] = system: MDA-MB-231 breast
[23] = system: PC-3 prostate
[24] = system: HOP-92 NSCLC
[25] = system: NCI/ADR-RES ovarian
[26] = system: ACHN renal
[27] = system: NCI-H460 lung
[28] = system: UACC-62 melanoma
[29] = system: RPMI-8226 leukemia
[30] = system: NCI-H23 lung
[31] = system: OVCAR-5 ovarian
[32] = system: 786-0 renal
[33] = system: COLO 205 colon
[34] = system: HS 578T breast
[35] = system: EKVX NSCLC
[36] = system: A549 NSCLC
[37] = system: NCI-H226 lung
[38] = system: NCI-H522 lung
[39] = system: HCT-116 colon
[40] = system: OVCAR-8 ovarian
[41] = system: OVCAR-4 ovarian
[42] = system: SF-539 CNS
[43] = system: SNB-75 CNS
[44] = system: SF-295 CNS
[45] = system: SW-620 colon
[46] = system: OVCAR-3 ovarian
[47] = system: SR leukemia
[48] = system: CCRF-CEM leukemia
[49] = system: IGROV1 ovarian
[50] = system: TK-10 renal
[51] = system: M14 melanoma
[52] = system: DU-145 prostate
[53] = system: HT29 colon
[54] = system: HOP-62 NSCLC
[55] = system: LOX IMVI melanoma
[56] = system: SK-OV-3 ovarian
[57] = system: T-47D breast
[58] = system: UACC-257 melanoma
[59] = system: MDA-N

Which results are given for `CCCCOC(=O)c1c(C)[nH]c(/C=C2\N=C(c3ccc[nH]3)C=C2OC)c1C`?
GI50 [1]: 53 nM; TGI [1]: 1290 nM; GI50 [2]: 138 nM; TGI [2]: 9850 nM; GI50 [3]: 100 nM; TGI [3]: 265 nM; GI50 [4]: 1180 nM; TGI [4]: > 56100 nM; GI50 [5]: 110 nM; TGI [5]: 1860 nM; GI50 [6]: 242 nM; TGI [6]: 9070 nM; GI50 [7]: 71 nM; TGI [7]: 3850 nM; GI50 [8]: 120 nM; TGI [8]: 1760 nM; GI50 [9]: 162 nM; TGI [9]: 2650 nM; GI50 [10]: 581 nM; TGI [10]: 4000 nM; GI50 [11]: 226 nM; TGI [11]: 2540 nM; GI50 [12]: 509 nM; TGI [12]: 2800 nM; GI50 [13]: 137 nM; TGI [13]: 337 nM; GI50 [14]: 1160 nM; TGI [14]: 2820 nM; GI50 [15]: 650 nM; TGI [15]: 12100 nM; GI50 [16]: 138 nM; TGI [16]: 2060 nM; GI50 [17]: 342 nM; TGI [17]: 2160 nM; GI50 [18]: 537 nM; TGI [18]: 3070 nM; GI50 [19]: 155 nM; TGI [19]: 8610 nM; GI50 [20]: 103 nM; TGI [20]: 381 nM; GI50 [21]: 123 nM; TGI [21]: 1740 nM; GI50 [22]: 56 nM; TGI [22]: 764 nM; GI50 [23]: 136 nM; TGI [23]: > 24900 nM; GI50 [24]: 163 nM; TGI [24]: 637 nM; GI50 [25]: 121 nM; TGI [25]: 2920 nM; GI50 [26]: 146 nM; TGI [26]: 1300 nM; GI50 [27]: 61.3 nM; TGI [27]: 2000 nM; GI50 [28]: 127 nM; TGI [28]: 339 nM; GI50 [29]: 175 nM; TGI [29]: 2040 nM; GI50 [30]: 254 nM; TGI [30]: 2600 nM; GI50 [31]: 337 nM; TGI [31]: 2470 nM; GI50 [32]: 267 nM; TGI [32]: 3090 nM; GI50 [33]: 274 nM; TGI [33]: 1670 nM; GI50 [34]: 147 nM; TGI [34]: 1190 nM; GI50 [35]: 460 nM; TGI [35]: 4880 nM; GI50 [36]: 205 nM; TGI [36]: 15200 nM; GI50 [37]: 310 nM; TGI [37]: 1720 nM; GI50 [38]: 174 nM; TGI [38]: 1680 nM; GI50 [39]: 41.2 nM; TGI [39]: 1360 nM; GI50 [40]: 216 nM; TGI [40]: 13800 nM; GI50 [41]: 177 nM; TGI [41]: 5040 nM; GI50 [42]: 245 nM; TGI [42]: 2000 nM; GI50 [43]: 124 nM; TGI [43]: 892 nM; GI50 [44]: 253 nM; TGI [44]: 1320 nM; GI50 [45]: 56.9 nM; TGI [45]: 1440 nM; GI50 [46]: 151 nM; TGI [46]: 1170 nM; GI50 [47]: 82.1 nM; TGI [47]: 1470 nM; GI50 [48]: 58.3 nM; TGI [48]: > 20400 nM; GI50 [49]: 232 nM; TGI [49]: 2390 nM; GI50 [50]: 185 nM; TGI [50]: 5070 nM; GI50 [51]: 171 nM; TGI [51]: 2010 nM; GI50 [52]: 274 nM; TGI [52]: 6370 nM; GI50 [53]: 41 nM; TGI [53]: 1720 nM; GI50 [54]: 416 nM; TGI [54]: 8040 nM; GI50 [55]: 29.6 nM; TGI [55]: 102 nM; GI50 [56]: 1450 nM; TGI [56]: 14400 nM; GI50 [57]: 347 nM; TGI [57]: 1900 nM; GI50 [58]: 488 nM; TGI [58]: 3350 nM

With `CC(C)c1c(O[Si](C(C)C)(C(C)C)C(C)C)cc2c(c1O)CC[C@H]1C(C)(C)CCC[C@]21C` as the compound, how does the TGI [1] read?
The TGI was > 100000 nM.

What about the TGI [2] of the same compound?
Its TGI is > 100000 nM.

What about the TGI [3] of the same compound?
Its TGI is > 100000 nM.

And the TGI [4]?
Its TGI is > 100000 nM.

And the TGI [5]?
Its TGI is > 100000 nM.

What about the TGI [6] of the same compound?
The TGI was > 100000 nM.

What about the TGI [7] of the same compound?
The TGI was > 100000 nM.

And the TGI [8]?
The TGI was > 100000 nM.

What about the TGI [59] of the same compound?
Its TGI is > 100000 nM.

What about the TGI [9] of the same compound?
Its TGI is > 100000 nM.

What about the TGI [10] of the same compound?
The TGI was 60400 nM.

What about the TGI [11] of the same compound?
Its TGI is > 100000 nM.

And the TGI [12]?
Its TGI is > 100000 nM.

What about the TGI [13] of the same compound?
Its TGI is > 100000 nM.

And the TGI [14]?
Its TGI is > 100000 nM.

What about the TGI [17] of the same compound?
Its TGI is > 100000 nM.

And the TGI [18]?
Its TGI is > 100000 nM.

And the TGI [19]?
The TGI was > 100000 nM.

And the TGI [20]?
Its TGI is > 100000 nM.

What about the TGI [21] of the same compound?
The TGI was > 100000 nM.

And the TGI [22]?
Its TGI is > 100000 nM.

And the TGI [23]?
Its TGI is > 100000 nM.

And the TGI [24]?
Its TGI is > 100000 nM.

What about the TGI [25] of the same compound?
Its TGI is > 100000 nM.

And the TGI [26]?
Its TGI is > 100000 nM.

What about the TGI [27] of the same compound?
Its TGI is > 100000 nM.

And the TGI [28]?
The TGI was > 100000 nM.

What about the TGI [29] of the same compound?
Its TGI is > 100000 nM.

What about the TGI [30] of the same compound?
The TGI was > 100000 nM.

What about the TGI [31] of the same compound?
The TGI was > 100000 nM.

What about the TGI [32] of the same compound?
The TGI was > 100000 nM.

And the TGI [33]?
The TGI was > 100000 nM.

And the TGI [34]?
Its TGI is > 100000 nM.

What about the TGI [35] of the same compound?
The TGI was > 100000 nM.

What about the TGI [36] of the same compound?
The TGI was > 100000 nM.

And the TGI [37]?
The TGI was > 100000 nM.

And the TGI [38]?
Its TGI is > 100000 nM.

And the TGI [39]?
The TGI was > 100000 nM.

What about the TGI [40] of the same compound?
The TGI was > 100000 nM.

And the TGI [41]?
The TGI was > 100000 nM.

What about the TGI [42] of the same compound?
Its TGI is > 100000 nM.

And the TGI [43]?
The TGI was > 100000 nM.

And the TGI [44]?
The TGI was > 100000 nM.

What about the TGI [45] of the same compound?
The TGI was > 100000 nM.

And the TGI [46]?
The TGI was > 100000 nM.

And the TGI [48]?
The TGI was > 100000 nM.

And the TGI [49]?
The TGI was > 100000 nM.

And the TGI [50]?
The TGI was > 100000 nM.

And the TGI [51]?
Its TGI is > 100000 nM.

And the TGI [52]?
Its TGI is > 100000 nM.

And the TGI [53]?
Its TGI is > 100000 nM.

And the TGI [54]?
Its TGI is > 100000 nM.

What about the TGI [55] of the same compound?
Its TGI is > 100000 nM.

And the TGI [56]?
Its TGI is > 100000 nM.

What about the TGI [58] of the same compound?
The TGI was > 100000 nM.
